The text below walks through data of the METLIN SMRT retention time set (Domingo-Almenara et al. 2019).

This data set can be described thus: gradient 5% acetonitrile 3 min, to 50% in 2 min, to 85% in 15 min, held 3 min, 100 µL/min. Conditions: column: Zorbax Extend-C18 2.1 x 50 mm; eluents: water / acetonitrile, 0.1% formic acid. In a few lines:
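Retention times come from adduct peaks that were picked computationally and then checked by hand. The standards, pure and pooled in mixtures of ~100 molecules, were run on a Zorbax Extend-C18 column (2.1 × 50 mm, 1.8 μm) at 100 μL/min with water and acetonitrile, each with 0.1% formic acid. Detection was by quadrupole time-of-flight mass spectrometry in positive and negative ionization mode, with a dead volume of 40 μL and a dwell volume of 900 μL.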
`CC(=O)c1cccc(NC(=O)COc2ccc(C(C)(C)C)cc2)c1` registered an RP-LC retention time of 1010 s. To `COc1cccc(-c2noc(CCn3nc(-c4ccc5c(c4)OCO5)ccc3=O)n2)c1OC` belongs 852 s; to `CN(C)C[C@@H]1CN(c2ncccn2)C[C@H]1NC(=O)C1(C)CCOCC1`, 532 s.

With `CN(CC1CCOCC1)S(=O)(=O)Cc1ccccc1Cl`, the RP-LC retention time was 834 s.

`COc1ccc(OC)c(NC(=O)C2CCN(C(=O)C3Sc4ccccc4NC3=O)CC2)c1` (centres undefined) returned an RP-LC retention time of 754 s.

On to `CCc1cc(=O)n(CC(=O)Nc2cccc(C(C)=O)c2)c(N2CCOCC2)n1`, for which the RP-LC retention time was 677 s. `COc1ccc(OCc2nc3ccc(C)cc3[nH]2)cc1` displayed an RP-LC retention time of 578 s. To `CSc1ccc(CNC(=O)c2nnn3c2COC(c2ccc(F)cc2)C3)cc1` (centres undefined) belongs 980 s; to `Cc1noc(C)c1S(=O)(=O)Nc1cc2c3c(c1)CC(=O)N3CCC2`, 672 s; to `Cc1cc(NC(=O)Cn2c(=O)cc(-c3nc(C(C)C)no3)c3ccccc32)ccc1F`, 959 s. Take `COc1cccc(/C=N\NC(=O)C(C)SC(C)C(=O)N/N=C/c2cccc(OC)c2)c1` (centres undefined): the RP-LC retention time worked out at 769 s. With `COCCCn1c(C)cc(C(=O)NCC2Cn3cccc3C(=O)N2C)c1C` (centres undefined), the RP-LC retention time came out at 666 s. To `COc1ccc(OC)c(NC(=O)C2Oc3ccccc3NC2=O)c1` (centres undefined) belongs 773 s; to `OC(c1ccccc1)(c1ccccc1)c1nccn1-c1ccccc1`, 754 s. To `COc1ccc(NC(=O)c2c(C)oc3nc(C)nc(N4CCOCC4)c23)c(OC)c1` belongs 818 s; to `Cc1ccccc1CNC(=O)C1CCN(S(=O)(=O)c2cc(C(=O)N(C)C)cs2)CC1`, 762 s; to `O[Si](CCCN1CCCCC1)(c1ccc(F)cc1)C1CCCCC1` (centres undefined), 865 s. In turn, `Cc1cccc(S(=O)(=O)N2CC3CN(C(=O)CC4CCCC4)CC(C2)O3)c1` displayed an RP-LC retention time of 890 s.

`Cn1c(C#N)ccc1-c1ccc2c(c1)C(C)(C)OC(=S)N2`: the RP-LC retention time turned out to be 989 s. For the compound `CCNC(=O)[C@H]1O[C@@H](n2cnc3c(N)ncnc32)C(O)[C@H]1O` (some centres undefined), the RP-LC retention time is 555 s. With `Cc1[nH]c(C)c(S(=O)(=O)N2CCC(C(=O)NC(C)(C)C)CC2)c1C(=O)N1CCCCC1`, the RP-LC retention time was 710 s. To `COc1ccc(C2(C(=O)N3CCCC(CN4CCOCC4)CC3)CC2)cc1` (centres undefined) belongs 596 s.

`COc1ccc(OC)c(-c2cc(C(=O)Nc3ccc4c(c3)CCC(=O)N4)[nH]n2)c1`: the RP-LC retention time turned out to be 681 s. `COC(=O)c1ccc2c(=O)n(-c3cccc(OC)c3)c(N3CCSC3)nc2c1` returned an RP-LC retention time of 1020 s. To `Cc1ccc(C2Cn3cnc(C(=O)N4CCC(C(=O)NC(C)c5ccccc5)CC4)c3CO2)cc1` (centres undefined) belongs 756 s. The compound `COc1cccc(-n2c(N3CCCC(C(=O)Nc4ccc(Cl)cc4)C3)nc3ccsc3c2=O)c1` (centres undefined) yielded an RP-LC retention time of 1020 s. In turn, `CCOC(=O)C1CCN(c2cc(C)nc3nc(-c4ccc(OC)cc4)nn23)CC1` displayed an RP-LC retention time of 881 s.

Consider `CCCn1ncc(N2CCC(C(=O)NCc3cccs3)CC2)cc1=O`, for which the RP-LC retention time stood at 686 s. Regarding `COCCCNC(=O)c1ccc(-c2ccc(N3CCSCC3)nc2)cc1`, the RP-LC retention time came to 646 s. To `Cc1nc(-c2cn(C(C)C)c3ncccc23)sc1C(=O)Nc1ccc2c(c1)OCO2` belongs 998 s. To `Cc1cccc2nnc(N3CCN(C(=O)c4cccnc4)CC3)n12` belongs 515 s.

For the compound `Cc1cc(F)ccc1NC(=O)c1c(O)c2cccnc2n(-c2cccc(F)c2)c1=O`, the RP-LC retention time came out at 1250 s. To `C=Cc1ccc(CN2N=C(C(=O)N3CCOCC3)S(=O)(=O)c3ccc(Cl)cc32)cc1` belongs 951 s. For `Cn1cc(CC(=O)NCc2ccc(F)cc2Cl)c2cccnc21`, the RP-LC retention time came to 727 s.

`Cc1nc2cc(-c3noc(C(C)Oc4ccccc4)n3)ccc2n(C2CCCC2)c1=O` (centres undefined) displayed an RP-LC retention time of 1310 s. As to `O=C(NCC1CN(CC2CC2)CC12CCCCC2)Nc1cc(F)cc(F)c1` (centres undefined), the RP-LC retention time was 760 s.

`Cc1ccc(NC(=O)N2CCC(N3CCN(Cc4ccccc4)C(=O)C3=O)CC2)cc1C` came in with an RP-LC retention time of 780 s. As for `Nc1ccc(-c2ccc3ncc4ccc(=O)n(-c5cccc(C(F)(F)F)c5)c4c3c2)cn1`, the RP-LC retention time was 653 s. To `Cc1sc(-c2cc(C(F)(F)F)[nH]n2)cc1S(=O)(=O)N1CCC(C)CC1` belongs 1100 s. Turning to `O=C(C1CCN(c2ncnc3c2nc2n3CCCCC2)CC1)N1CCN(c2ccccn2)CC1`, the RP-LC retention time worked out at 592 s. To `O=C(Cn1cnc2c(sc3nc(-c4ccccc4)ccc32)c1=O)Nc1ccc(Br)cc1` belongs 1120 s; to `CCCCCc1ccc(/C=C/C(=O)Nc2ccccc2C(=O)O)cc1`, 1230 s; to `Cc1ccc(NC(=O)C2CCCN(S(=O)(=O)c3cn(C(C)C)cn3)C2)c(Cl)c1` (centres undefined), 834 s. As for `O=C(NCCc1ccccc1)N1CCC(c2noc(-c3ccccc3)n2)C1` (centres undefined), the RP-LC retention time worked out at 914 s. To `CCc1ccc(-n2nc(CO)c(C(=O)NC3CCCC3)n2)cc1` belongs 1120 s; to `Cc1cc(-c2c(C)sc(C)c2S(=O)(=O)Nc2ccc(C)c(F)c2)n[nH]1`, 1080 s.

`Cc1ccc(CNC(=O)C2CCN(c3cnc4nccnc4c3)CC2)cc1` had an RP-LC retention time of 705 s. To `COc1ccc(CN2CC[C@@H]3CN(S(C)(=O)=O)[C@@H]3C2)c(OC)c1` belongs 580 s; to `Cn1c(=O)c2c(ncn2CC2OCCO2)n(C)c1=O`, 606 s; to `O=C(c1ccoc1)N1CCOc2ccc(N3CCOCC3)cc2C1`, 678 s. `CCC1CN2C=Nc3oc(C)c(C(=O)NCc4ccccc4Cl)c3C2=N1` (centres undefined): the RP-LC retention time stood at 681 s.

`CC(C)Cn1ccc2c(cc(C(=O)Nc3ccccc3Br)n2C)c1=O` registered an RP-LC retention time of 881 s.

The compound `COc1ccc(Cl)cc1NC(=O)C1CCCN(c2ncnc3c2nc2n3CCCCC2)C1` (centres undefined) yielded an RP-LC retention time of 934 s. In the case of `CC(C)CN1C(=O)c2cccn2CC1C(=O)NCCN(C)C1CCCCC1` (centres undefined), the RP-LC retention time amounted to 614 s. In the case of `CCCNC(=O)C1CCN(c2ccc(SCC(=O)Nc3ccc(F)cc3Cl)nn2)CC1`, the RP-LC retention time was determined as 682 s. To `CC(C)(C)c1cc(C(=O)Nc2cccc(C#N)c2)nc2ccnn12` belongs 1170 s. To `CCOC(=O)c1c(C)[nH]c(CCC(=O)NC(C)CC)c1C` (centres undefined) belongs 762 s.

`Cn1nnc2ccc(-c3noc(-c4ccccc4)n3)cc21`: the RP-LC retention time is 985 s. Turning to `O=C(Nc1nc(C(=O)N2CCc3ccccc32)co1)c1cccs1`, the RP-LC retention time turned out to be 730 s.
